Laboratory results: patent US8383619B2, “Pharmaceutical compounds” (Astex Therapeutics Limited, priority 2008, dated 2013)

How the values were obtained:
Assay in all cases: Anti-proliferative assay (Oncodesign)
Assay type in all cases: cell-based
LB37-NSCLC = LB37-NSCLC (LUNG); read-out: IC50 (Concentration of test compound)
How it was run: (§1)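 Plate cells; 16 h recovery; add compound, 72 h; add 10% (v/v) Alamar Blue, 6 h; read fluorescence 535/590. IC50 (nM), max conc 10,000 nM.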

Capan-2 = conditions: Homo sapiens; Capan-2 (PANCREAS); read-out: IC50 (Concentration of test compound)
How it was run: as §1

NAMALWA = NAMALWA (BLOOD); read-out: IC50 (Concentration of test compound)
How it was run: as §1

MCF-7 = conditions: Homo sapiens, MCF7; MCF-7 (BREAST); read-out: IC50 (Concentration of test compound)
How it was run: as §1

KB3 = KB3 (HEAD AND NECK); read-out: IC50 (Concentration of test compound)
How it was run: as §1

NCI-H69 = conditions: Homo sapiens; NCI-H69 (LUNG); read-out: IC50 (Concentration of test compound)
How it was run: as §1

NIH: OVCAR-3/CPT20 = conditions: Homo sapiens; NIH: OVCAR-3/CPT20 (OVARY); read-out: IC50 (Concentration of test compound)
How it was run: as §1

KCL-22 = conditions: Homo sapiens; KCL-22 (BLOOD); read-out: IC50 (Concentration of test compound)
How it was run: as §1

Hs 294T = conditions: Homo sapiens; Hs 294T (SKIN); read-out: IC50 (Concentration of test compound)
How it was run: as §1

EHEB = EHEB (BLOOD); read-out: IC50 (Concentration of test compound)
How it was run: as §1

FaDu = conditions: Homo sapiens; FaDu (HEAD AND NECK); read-out: IC50 (Concentration of test compound)
How it was run: as §1

IGROV-1 = conditions: Homo sapiens; IGROV-1 (OVARY); read-out: IC50 (Concentration of test compound)
How it was run: as §1

NCI-H82 = conditions: Homo sapiens; NCI-H82 (LUNG); read-out: IC50 (Concentration of test compound)
How it was run: as §1

NCI-H520 = conditions: Homo sapiens; NCI-H520 (LUNG); read-out: IC50 (Concentration of test compound)
How it was run: as §1

CGL-1 = CGL-1 (BRAIN); read-out: IC50 (Concentration of test compound)
How it was run: as §1

PA-1 = conditions: Homo sapiens; PA-1 (OVARY); read-out: IC50 (Concentration of test compound)
How it was run: as §1

HCC1954 = conditions: Homo sapiens; HCC1954 (BREAST); read-out: IC50 (Concentration of test compound)
How it was run: as §1

T24 = conditions: Homo sapiens, T-24; T24 (URINARY BLADDER); read-out: IC50 (Concentration of test compound)
How it was run: as §1

BB49-HNSCC = BB49-HNSCC (HEAD AND NECK); read-out: IC50 (Concentration of test compound)
How it was run: as §1

LB1617-HNSCC = LB1617-HNSCC (HEAD AND NECK); read-out: IC50 (Concentration of test compound)
How it was run: as §1

LB996-RCC = LB996-RCC (KIDNEY); read-out: IC50 (Concentration of test compound)
How it was run: as §1

RPMI 8226/Dox40 = conditions: Homo sapiens; RPMI 8226/Dox40 (BLOOD); read-out: IC50 (Concentration of test compound)
How it was run: as §1

RPMI 8226 = conditions: Homo sapiens; RPMI 8226 (BLOOD); read-out: IC50 (Concentration of test compound)
How it was run: as §1

ARH-77 = conditions: Homo sapiens; ARH-77 (BLOOD); read-out: IC50 (Concentration of test compound)
How it was run: as §1

Calu-3 = conditions: Homo sapiens; Calu-3 (LUNG); read-out: IC50 (Concentration of test compound)
How it was run: as §1

IC50 (MCF-7): > 10 µM
IC50 (NCI-H69): 0.162 µM
IC50 (NIH: OVCAR-3/CPT20): > 10 µM
IC50 (NCI-H82): > 10 µM
IC50 (NCI-H520): 0.098 µM
IC50 (HCC1954): 0.028 µM
IC50 (T24): 0.852 µM
IC50 (Calu-3): > 10 µM
SMILES: CC(C)c1cc(C(=O)N2Cc3ccc(CN4CCN(C)CC4)cc3C2)c(O)cc1O [(2,4-dihydroxy-5-isopropyl-phenyl)-[5-(4-methyl-piperazin-1-ylmethyl)-1,3-dihydro-isoindol-2-yl]-methanone]
IC50 (LB37-NSCLC): 0.063 µM
IC50 (Capan-2): 0.144 µM
IC50 (NAMALWA): 0.093 µM
IC50 (KB3): 0.048 µM
IC50 (KCL-22): 0.024 µM
IC50 (Hs 294T): 0.219 µM
IC50 (EHEB): > 10 µM
IC50 (FaDu): 0.029 µM
IC50 (IGROV-1): 0.109 µM
IC50 (CGL-1): > 10 µM
IC50 (PA-1): > 10 µM
IC50 (BB49-HNSCC): 0.146 µM
IC50 (LB1617-HNSCC): 0.139 µM
IC50 (LB996-RCC): 0.158 µM
IC50 (RPMI 8226/Dox40): 0.213 µM
IC50 (RPMI 8226): 0.01 µM
IC50 (ARH-77): > 10 µM
